In PMC10752971 (Frontiers in Pharmacology, 2023):
Like-named read-outs stand apart in the source and are kept apart here.

Assays:
[1] = system: induced pulmonary fibrosis mouse models; parameters: method as in Beck et al., 2020; conditions: ref Beck et al., 2020; cited from earlier work
FP receptor [2] = molecular target: T1, FP receptor (Homo sapiens, UniProt P43088); test: [35S]-GTPγS immunoprecipitation assay of Gα-subunit coupling in MYLA cell membranes
Method: Tissue preparation: MYLA cells were grown to 95%–100% confluency in a T175 flask, lifted, and pelleted via standard cell culture techniques. The harvested cells were homogenised in ice-cold lysis buffer (composition (mM): HEPES, 20; EDTA, 1; MgCl2, 2; KCl, 10; DTT, 2; pH, 7.4) using a Coleman handheld homogeniser. The homogenates were cleared (1,000×g, 10 min, 4°C) and membranes were collected by centrifugation (16,100×g, 90 min, 4°C). The membranes were resuspended in freezing buffer [composition (mM): HEPES, 10; MgCl2, 1; DTT, 1; pH, 7.4], where the protein concentration was adjusted to 1.5 mg/mL and rapidly frozen in liquid nitrogen. The membranes were stored at −80°C until required.
Radioligand binding assay: 75 μg of membrane was added to 50 μL of assay buffer [composition (mM): HEPES, 10; MgCl2, 10; NaCl, 100; pH, 7.4] containing 1 nM [^35S]-GTPγS (1,250 Ci/mmol) and 10 μM GDP, with or without agonist and antagonists as required, and incubated at 30°C for 2 min. Non-specific binding (NSB) was determined by the inclusion of 10 μM unlabelled GTPγS. Incubation was terminated by the addition of 900 μL of ice-cold assay buffer, and the samples were transferred to ice. The cell membrane was recovered from the reaction mixture by centrifugation (16,100×g, 6 min, 4°C), and the supernatant was removed by aspiration. Membrane pellets were solubilised by the addition of 50 μL of ice-cold solubilisation buffer [composition (mM): Tris-HCl, 100; NaCl, 200; EDTA, 1; IGEPAL CA 630, 1.25% (v/v); 0.2% (w/v) SDS; pH, 7.4] and vortex mixing. […] The beads were washed and pelleted thrice with 500 μL of solubilisation buffer (less SDS) before re-suspension in Pico-Flour^TM scintillation cocktail (Perkin Elmer, Buckinghamshire, United Kingdom) where [^35S]-GTPγS was determined by standard liquid scintillation counting methods.
Data analysis: Specific binding was determined by CPM values and expressed as a % increase over basal (unstimulated), and plotted using the GraphPad Prism 9 software. […]

FP receptor [3] = molecular target: T1, FP receptor; test: Antagonist Ca2+ assay: FP antagonists on PGF2α-stimulated Ca2+ transients in MYLA cells; type: cell-based; parameters: endogenous in cells; host or cells: MYLA cells (conditionally immortalised human myometrial cells; hTERT + temperature-sensitive SV40 large T)
Method: (§1) MYLA cells were grown to 95%–100% confluency in 3 cm^2 glass-bottom dishes (MatTek Corporation, MA, United States). The cells were serum starved for 24–48 h with 2% DMEM/F12 media and then incubated with 5 μM Calbryte^TM 520 AM (Stratech Scientific Ltd., Ely, United Kingdom) for 60 min at 37°C in a 95%/5% air/CO2-humidified environment, followed by 15 min at room temperature in the dark. […] The plates were then loaded on the stage of an Olympus IX81 inverted microscope and visualised with a 10x objective lens. Temperatures were maintained at 37°C. Calbryte^TM 520 AM was excited at Ex/Em: 490/525 nm. The cells were imaged for 3 min to allow any initial LED-induced Ca^2+ signalling to subside. […] Fluorescence was captured at a rate of one frame per second for 3 min, with agonist/antagonist injections occurring after a 30-s basal period.
(§2) Data analysis: Videos were visualised, and data were analysed using ImageJ, the image analysis software. […] The frequency of Ca^2+ oscillations was calculated as the average number of oscillations over time in seconds (Hz). All data were visualised using the GraphPad Prism 9 software.
(§3) Experiments were repeated on MYLA cells, where N represents the number of biological repeats.

MYLA cells [4] = test: RT-qPCR of OXTR, CALD1 and MYLK expression in MYLA cells; type: cell-based, human; conditions: for OXTR, CALD1, and MYLK expression at 48 h (RT-qPCR): 1 µM PGF2α + 1 µM antagonist vs 1 µM PGF2α; for Expression of OXTR, CALD1, and MYLK (RT-qPCR time series): 1 µM PGF2α + 1 µM antagonist, 1–48 h
[5] = system: transfected HEK-293 cell lines; parameters: method as in Martos et al., 2016; conditions: ref Martos et al., 2016; cited from earlier work
MYLA cells [6] = test: RNA-Seq time series of marker gene expression in MYLA cells; type: cell-based, human
Method: The MYLA cells were seeded into a T75 flask and allowed to grow to 95%–100% confluency. […] The cells were harvested at T = 1, 3, 6, 9, 12, 24, and 48 h, pelleted (1,200 rpm, 5 min, 4°C), and snap frozen on dry ice before storage at −80°C.
RNA was extracted from pelleted cells using the GenElute^TM Total RNA Purification Kit (Sigma Aldrich, Poole, United Kingdom) according to the manufacturer’s instructions. RNA concentration and purity were determined using a NanoDrop 1000 Spectrophotometer (Thermo Fisher Scientific, Loughborough, United Kingdom). All RNA samples were stored at −80°C until use.
RNA quality was verified using a Bioanalyzer according to the manufacturer’s instructions (Eukaryote Total RNA Nano, Agilent). Illumina TruSeq RNA libraries were prepared and sequenced using a NextSeq 500 with a high-output 75 bp cycle cartridge (Illumina, Cambridge, United Kingdom) by the University of Warwick Genomic Facility.
bcl2fastq v2.20.0.422 was used for demultiplexing each sample. FastQC v0.11.9 was used to quality control check the demultiplexed FastQC files, and MultiQC v1.9 consolidated the QC reports. Reads were aligned to the human reference genome build GRCh38 release 86 using STAR version 2.7.9a. The number of reads mapped to each genomic feature was calculated with featureCounts v2.0.1. The counts were imported into R Studio and analysed with the DESeq2 package.
Data analysis: TPM data were processed and analysed using R Studio and then plotted using the GraphPad 9 software.
The experiments were technical triplicates of biological triplicate samples taken from seven time points. The data in Figures 8–10 were analysed by two-way ANOVA and post hoc Dunnett’s multiple comparison test comparing treatments to the ethanol vehicle.

FP receptor [7] = molecular target: T1, FP receptor; conditions: MYLA cells
Method: as §1, §2, §3

[8] = 300 pM–10 µM antagonist in the presence of 1 µM PGF2α, N = 3, read-out: IC50, effect on AUC
[9] = 300 pM–10 µM antagonist in the presence of 1 µM PGF2α, N = 3, read-out: IC50, effect on Fmax
[10] = 300 pM–10 µM antagonist in the presence of 1 µM PGF2α, N = 3, read-out: IC50, effect on frequency of Ca2+ oscillations
[11] = four-parameter fit, bottom constrained to 0
[12] = normalised to averaged ionomycin Fmax

T1 sequence (P43088 whole entry): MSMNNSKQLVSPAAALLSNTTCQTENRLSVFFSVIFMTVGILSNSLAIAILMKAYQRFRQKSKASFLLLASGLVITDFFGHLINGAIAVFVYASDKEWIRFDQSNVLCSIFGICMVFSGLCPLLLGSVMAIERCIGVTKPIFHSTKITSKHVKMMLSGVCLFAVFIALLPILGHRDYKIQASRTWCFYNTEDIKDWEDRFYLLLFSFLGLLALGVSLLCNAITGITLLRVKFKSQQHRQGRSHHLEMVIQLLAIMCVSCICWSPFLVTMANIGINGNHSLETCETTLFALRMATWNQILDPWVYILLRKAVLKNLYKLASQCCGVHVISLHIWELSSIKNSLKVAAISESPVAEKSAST

| SMILES | IC50 (FP receptor [3]; [8]) [nM] | IC50 (FP receptor [3]; [9]) [nM] | IC50 (FP receptor [3]; [10]) [nM] | HillSlope ± SD, effect on AUC (FP receptor [3]; in the presence of 1 µM PGF2α) | HillSlope ± SD, effect on Fmax (FP receptor [3]; in the presence of 1 µM PGF2α) | HillSlope ± SD, effect on frequency (FP receptor [3]; in the presence of 1 µM PGF2α) | other results |
| --- | --- | --- | --- | --- | --- | --- | --- |
| Cc1c(N2CCCC2)nc2ccc(Br)cc2c1C(=O)NC[C@H](CCC(=O)O)c1ccccc1Cl [BAY-6672] | – | – | – | – | – | – | Effects in induced pulmonary fibrosis mouse models [1]: anti-inflammatory and antifibrotic effects |
| Cc1c(-c2ccccc2)nc2ccc(Br)cc2c1C(=O)NCC(CCC(=O)O)c1ccccc1Cl (stereo not drawn) [Compound 39/40, 5-(6-bromo-3-methyl-2-phenylquinoline-4-carboxamido)-4-(2-chlorophenyl) pentanoic acid] | 90 | 284 | 154 | −0.98 ± 0.27 | −0.54 ± 1.63 | −2.00 ± 0.56 | PGF2α-stimulated coupling to Gαq/11 (FP receptor [2]; 1 µM compound 39/40 + 1 µM PGF2α, 2 min): reversed; OXTR, CALD1, and MYLK expression at 48 h (RT-qPCR) (MYLA cells [4]): significant decrease; Expression of OXTR, CALD1, and MYLK (RT-qPCR time series) (MYLA cells [4]): reduced |
| Cc1c(N2CCCC2)nc2ccc(Br)cc2c1C(=O)NCC(CCC(=O)O)c1ccccc1Cl (stereo not drawn) [Compound 46/47, 5-(6-bromo-3-methyl-2-(pyrrolidin-1-yl)quinoline-4-carboxamido)-4-(2-chlorophenyl)-pentanoic acid] | – | – | – | −1.37 ± 0.68 | −1.02 ± 0.40 | −0.69 ± 0.30 | – |
| CC(C)Cn1ncc2cc(Cl)cc(Cn3nc(N)c4cc(C(=O)O)ccc43)c21 [Compound 68, 3-amino-1-((5-chloro-1-isobutyl-1H-indazol-7-yl)methyl)-1H-indazole-5-carboxylic acid] | 175 | 194 | 978 | −0.44 ± 0.19 | −0.47 ± 0.19 | −0.49 ± 0.17 | IC50 (FP receptor [3]; in the presence of 1 µM PGF2α, N = 3, read-out: pIC50 ± SD, effect on AUC (converted)): 89.1 nM; Potency in FLIPR functional assays [5]: potent |
| O=C(N[C@H](c1ccc(F)cc1)[C@H]1CCS(=O)(=O)C1)[C@@H]1CCN1S(=O)(=O)c1ccc(-c2cccnc2)cc1 [Compound N582707, (S)-N-((S)-((R)-1,1-dioxidotetrahydrothiophen-3-yl)(4-fluorophenyl)methyl)-1-((4-(pyridin-3-yl)phenyl)sulfonyl)azetidine-2-carboxamide] | 50.4 | 21.3 | 22.1 | – | −0.49 ± 0.20 | −0.55 ± 0.17 | Expression of fibroblast marker genes (DCN, FBLN1, LOXL1, PDGFRA) (MYLA cells [6]; 1 µM PGF2α + 1 µM FP antagonist, up to 48 h): increased the expression; IC50 (FP receptor [3]; in the presence of 1 µM PGF2α, N = 3, read-out: pIC50 ± SD, effect on frequency of Ca2+ oscillations (converted)): 21.9 nM; OXTR, CALD1, and MYLK expression at 48 h (RT-qPCR) (MYLA cells [4]): significant decrease; Expression of OXTR, CALD1, and MYLK (RT-qPCR time series) (MYLA cells [4]): reduced |
| O=C(N[C@@H](CCO)c1ccc(F)cc1)[C@@H]1SCCN1S(=O)(=O)c1ccc(-c2ccccc2)cc1 [OBE002, [(S)-3-(biphenyl-4-sulfonyl)-thiazolidine-2-carboxylic acid [(S)-1-(4-fluorophenyl)-3-hydroxy-propyl]-amide]] | 180 | 78.3 | 1980 | −0.41 ± 0.17 | −0.38 ± 0.15 | −0.36 ± 0.19 | pIC50 ± SD, effect on Fmax (FP receptor [3]; in the presence of 1 µM PGF2α, N = 3): 7.11 ± 0.68 |
| CCCCC[C@H](O)/C=C/[C@@H]1[C@@H](C/C=C\CCCC(=O)O)[C@@H](O)C[C@H]1O [PGF2α, prostaglandin F2α] | – | – | – | – | – | – | [35S]-GTPγS binding to Gαq/11 (FP receptor [2]; 1 µM PGF2α vs basal, 2 min): significantly increased; Gαs and Gαi coupling (FP receptor [2]; stimulation with PGF2α): no effect; Effect on Fmax, AUC and frequency of intracellular Ca2+ oscillations compared to basal (FP receptor [7]; 300 pM to 10 µM PGF2α): concentration-dependent increase; HillSlope ± SEM, AUC (FP receptor [7]; [11]): 1.06 ± 0.45; HillSlope ± SEM, Fmax (FP receptor [7]; [11]): 0.91 ± 0.28; HillSlope ± SEM, Frequency (FP receptor [7]; [11]): 0.88 ± 0.33; Emax ± SEM, Frequency (FP receptor [7]; frequency of Ca2+ oscillations): 0.01 ± 0.01; Emax ± SEM, AUC (FP receptor [7]; [12]): 1.50 ± 0.14; Emax ± SEM, Fmax (FP receptor [7]; [12]): 0.14 ± 0.01; Expression of key genes involved in labour such as OXTR (also IL6, IL11) (MYLA cells [6]; 1 µM PGF2α vs vehicle, 1–48 h): upregulated; Expression of smooth muscle marker genes (ACTA2, CALD1, CNN1, COL4A1, COL4A2, MYLK, MYOCD, TAGLN, TGFB2, TGFB3) (MYLA cells [6]; 1 µM PGF2α, up to 48 h): increased expression |
